Earlier results, collected in patent US20130280348A1, “Carbon dioxide and saline nasal delivery methods and treatments” (Glynn Tech, Inc., priority 2012, published 2013).

Legend:
[1] = tested on: seasonal allergic rhinitis (SAR); details: intranasal
[2] = tested on: nasal allergen challenge (grass or ragweed allergen) in subjects with SAR

In the case of `O=C=O` [CO(2), carbon dioxide], the “symptoms of seasonal allergic rhinitis (SAR)” value [1] is given as “reduce symptoms”, the “histamine levels in ipsilateral nasal secretions” value ([2]; after pretreatment with CO(2), increased significantly with sham treatment) is given as “did not increase” and the ipsilateral secretion weights ([2]; compared with no treatment) is given as “numerically reduced”. For the same compound, the sneezes ([2]; compared with no treatment, 12 subjects with SAR, 20-second CO(2) exposure 30 minutes before challenge, p=0.05) was “significant reduction”, the “bilateral runny nose symptoms” value ([2]; compared with no treatment, p=0.01) was “significant reduction” and the “contralateral secretion weights (reflex secretory response to allergen, primary outcome)” value ([2]; compared with no treatment, p=0.04) was “significant reduction”. For the same compound, the “sensation reported by subjects during exposure” value ([2]; during 20-second exposure to CO(2)) was “transient burning sensation”, the “acute response to allergen challenge” value ([2]; treatment with nasal CO(2)) was “partial reduction” and the reflex responses ([2]; treatment with nasal CO(2)) was “reduced”.
